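Each compound was tested at five concentrations against cells in 96-well plates for 48 hours. The concentration for 50% growth inhibition is given as GI50. TGI: concentration producing complete growth inhibition.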
Legend:
Assay in all cases: inhibition of tumour cell growth, NCI panel, 48 h
RXF 393 renal = system: RXF 393 renal
HS 578T breast = system: HS 578T breast
BT-549 breast = system: BT-549 breast
SF-539 CNS = system: SF-539 CNS
UACC-62 melanoma = system: UACC-62 melanoma
786-0 renal = system: 786-0 renal
T-47D breast = system: T-47D breast
EKVX NSCLC = system: EKVX NSCLC
DU-145 prostate = system: DU-145 prostate
M19-MEL melanoma = system: M19-MEL melanoma
DMS 114 small cell lung = system: DMS 114 small cell lung
XF 498 CNS = system: XF 498 CNS

Compound | TGI (RXF 393 renal) [µM] | TGI (HS 578T breast) [µM] | TGI (BT-549 breast) [µM] | TGI (SF-539 CNS) [µM] | TGI (UACC-62 melanoma) [µM] | TGI (786-0 renal) [µM] | TGI (T-47D breast) [µM] | TGI (EKVX NSCLC) [µM] | TGI (DU-145 prostate) [µM] | GI50 (HS 578T breast) [µM] | GI50 (BT-549 breast) [µM] | GI50 (SF-539 CNS) [µM] | GI50 (UACC-62 melanoma) [µM] | GI50 (T-47D breast) [µM] | GI50 (EKVX NSCLC) [µM] | GI50 (DU-145 prostate) [µM] | TGI (M19-MEL melanoma) [µM] | TGI (DMS 114 small cell lung) [µM] | TGI (XF 498 CNS) [µM] | GI50 (RXF 393 renal) [µM]
O=Nn1c2ccccc2c2ccccc21 | > 100 | > 100 | > 100 | > 100 | > 100 | > 100 | > 100 | > 100 | > 100 |  |  |  |  |  |  |  |  |  |  | 
CCOC(=O)CCCc1cc(=O)c2c(C)c3[nH]c4ccc(Cl)cc4c3c(C)c2[nH]1 | 27.1 |  | 41.8 | 31.6 |  | 38.2 |  | > 100 | 57.2 |  |  |  |  |  |  |  |  |  |  | 
CC(=O)OC/C=C\Cn1ncc(=O)[nH]c1=O | 37.1 | > 100 |  | 35.7 |  |  | 69.9 | 38.8 | 42.8 |  |  |  |  |  |  |  |  |  |  | 
Nc1ccc(C2(c3ccc(N)cc3)C3CC4CC(C3)CC2C4)cc1 | 17.8 |  | 25.2 |  | 30.6 |  | 42.8 | 32 |  |  |  |  |  |  |  |  |  |  |  | 
CC=C/C=C/[C@@H]1O[C@](O)([C@H](CC)C(=O)NC/C=C/C=C(\C)[C@@H](OC)[C@@H](C)[C@@H]2O[C@H](/C=C/C=C/C=C(\C)C(=O)c3c(O)cc[nH]c3=O)[C@H](O)[C@@H]2O)[C@H](O)[C@H](O)C1(C)C |  | > 100 |  | > 100 | > 100 |  |  | > 100 |  |  |  |  |  |  |  |  |  |  |  | 
Fc1ccc(C2CC(c3cccc(Nc4ccncc4)c3)=NN2c2ccccc2)cc1 (centres undefined) |  | 3.8 | 3.46 | 3.06 | 3.24 |  | 4.62 | 5.71 | 3.91 | 1.81 | 1.68 | 1.65 | 1.76 | 2.04 | 1.99 | 1.98 |  |  |  | 
Nc1nc(N)c(N=Nc2ccccc2)c(=O)[nH]1 |  |  |  | > 100 | 69.7 | > 100 |  |  |  |  |  |  |  |  |  |  | > 100 | 71.2 | > 100 | 
CCOP(=O)(OCC)C(Cc1c[nH]c2ccccc12)C(=O)O (centres undefined) |  | > 100 |  |  |  |  | > 100 |  | > 100 |  |  |  |  |  |  |  |  |  |  | 
O=S1(=O)C[C@H](NCc2ccccc2)[C@H](NCc2ccccc2)C1 | > 100 | > 100 | > 100 | > 100 | > 100 |  | 86.4 | > 100 | > 100 |  |  |  |  |  |  |  |  |  |  | 
COc1ncnc2c(Cl)c(C(O)c3ccccc3)c(Cl)cc12 (centres undefined) | 35.5 | 49.9 | 66.1 | 50.2 | 52.1 |  | > 100 | > 100 | > 100 |  |  |  |  |  |  |  |  |  |  | 
Cc1ccc(S(=O)(=O)NCCCSCCN)cc1 | > 100 | > 100 |  |  |  |  | > 100 |  | > 100 |  |  |  |  |  |  |  |  |  |  | 
COc1ccc(/C=C/c2cc(O)cc(OC3OC(CO)C(O)C(O)C3O)c2)cc1O (centres undefined) | > 100 | > 100 | > 100 | > 100 | > 100 | > 100 | > 100 | > 100 | > 100 |  |  |  |  |  |  |  |  |  |  | 
OCC1NC(CO)C(O)C1O (centres undefined) | > 100 | > 100 | > 100 |  | > 100 |  | > 100 |  | > 100 |  |  |  |  |  |  |  |  |  |  | 
O=C(Nc1ccc(C(F)(F)F)cc1[N+](=O)[O-])C(=O)Nn1c(=S)[nH]c2ccccc2c1=O | > 100 |  |  | > 100 | > 100 |  |  | > 100 |  |  |  |  |  |  |  |  | > 100 | > 100 | > 100 | 
CC(C)N(CCNc1nc(C(Cl)(Cl)Cl)nc2cc(Cl)ccc12)C(C)C | 2.78 | 3.99 |  | 3.38 | 3.22 |  | 5.08 | 4.32 | 3.76 | 1.56 |  | 1.82 | 1.72 | 2.24 | 1.57 | 1.61 |  |  |  | 1.41

Source: PubChem BioAssay (NCI)
